Earlier results in article PMC3735122 (mBio, 2013).

System: seasonal H3N2 isolates with R292K NA mutation
Details: cited from earlier work

Row | SMILES | sensitivity of seasonal H3N2 isolates with R292K mutation
1 | CCC(CC)O[C@@H]1C=C(C(=O)O)C[C@H](N)[C@H]1NC(C)=O [oseltamivir carboxylate] | significantly reduced sensitivity
2 | CCC(CC)[C@H](NC(C)=O)[C@@H]1[C@H](O)[C@@H](C(=O)O)C[C@H]1N=C(N)N [peramivir] | intermediate resistance
3 | CC(=O)N[C@H]1[C@H]([C@H](O)[C@H](O)CO)OC(C(=O)O)=C[C@@H]1N=C(N)N [zanamivir] | slightly reduced sensitivity
